According to ChEMBL document CHEMBL3421567, “Non-electrophilic modulators of the canonical Keap1/Nrf2 pathway” (Bioorg Med Chem Lett, 2015):
Residues, ends and D or L forms follow the SMILES beside them.

Legend:
Format in all cases: protein assay
Keap1/Nrf2 [1] = target: T1, Keap1/Nrf2 (Homo sapiens, UniProt Q14145+Q16236); experiment: Binding affinity to Keap1/Nrf2 complex (unknown origin) by fluorescence polarization assay
Keap1/Nrf2 [2] = target: T1, Keap1/Nrf2; experiment: Inhibition of Keap1/Nrf2 complex (unknown origin)
Keap1/Nrf2 [3] = target: T1, Keap1/Nrf2; experiment: Binding affinity to Keap1/Nrf2 complex (unknown origin) by ITC method

T1 sequence (Q16236 whole entry): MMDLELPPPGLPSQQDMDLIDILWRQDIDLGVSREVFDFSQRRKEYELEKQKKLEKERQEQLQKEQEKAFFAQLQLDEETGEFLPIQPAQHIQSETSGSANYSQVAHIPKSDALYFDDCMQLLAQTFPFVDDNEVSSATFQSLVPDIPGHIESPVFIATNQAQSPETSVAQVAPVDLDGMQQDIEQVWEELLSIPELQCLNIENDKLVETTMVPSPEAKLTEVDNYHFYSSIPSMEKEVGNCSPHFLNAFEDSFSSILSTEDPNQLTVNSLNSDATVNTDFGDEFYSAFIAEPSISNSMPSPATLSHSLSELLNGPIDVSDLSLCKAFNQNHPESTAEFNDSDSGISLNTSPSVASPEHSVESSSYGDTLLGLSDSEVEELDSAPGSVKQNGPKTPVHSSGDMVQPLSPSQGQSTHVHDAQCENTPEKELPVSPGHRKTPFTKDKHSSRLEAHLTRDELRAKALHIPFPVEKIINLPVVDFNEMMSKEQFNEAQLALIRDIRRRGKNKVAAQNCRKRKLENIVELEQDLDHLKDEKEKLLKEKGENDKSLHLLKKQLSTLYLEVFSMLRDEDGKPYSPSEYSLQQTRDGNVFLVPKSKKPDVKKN
T1 sequence (Q14145 whole entry): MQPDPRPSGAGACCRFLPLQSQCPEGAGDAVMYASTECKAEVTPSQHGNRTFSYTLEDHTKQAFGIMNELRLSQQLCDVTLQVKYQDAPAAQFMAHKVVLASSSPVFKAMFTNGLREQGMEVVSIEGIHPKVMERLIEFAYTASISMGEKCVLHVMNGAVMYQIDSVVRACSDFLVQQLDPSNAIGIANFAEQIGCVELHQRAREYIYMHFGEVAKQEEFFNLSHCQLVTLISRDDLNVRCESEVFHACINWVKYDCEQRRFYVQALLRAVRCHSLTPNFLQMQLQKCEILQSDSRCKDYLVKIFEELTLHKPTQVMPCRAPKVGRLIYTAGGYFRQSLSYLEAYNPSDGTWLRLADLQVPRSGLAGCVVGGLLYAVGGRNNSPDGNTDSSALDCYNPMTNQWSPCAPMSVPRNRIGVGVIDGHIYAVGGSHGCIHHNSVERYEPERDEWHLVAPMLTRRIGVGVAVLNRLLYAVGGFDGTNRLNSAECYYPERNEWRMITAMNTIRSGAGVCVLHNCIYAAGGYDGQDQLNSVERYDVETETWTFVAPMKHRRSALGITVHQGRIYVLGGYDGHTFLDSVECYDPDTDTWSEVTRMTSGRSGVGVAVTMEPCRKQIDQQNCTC

Row | SMILES | Kd (Keap1/Nrf2 [3]) [µM] | also measured
1 | CC[C@H](C)[C@H](NC(=O)[C@@H]1CCCN1C(=O)[C@H](CC(C)C)NC(=O)[C@H](Cc1ccccc1)NC(=O)[C@H](CCC(=O)O)NC(=O)CNC(=O)[C@@H](NC(=O)[C@H](CCC(=O)O)NC(=O)[C@H](CCC(=O)O)NC(=O)[C@H](CC(=O)O)NC(=O)[C@H](CC(C)C)NC(=O)[C@H](CCC(N)=O)NC(=O)[C@@H](N)CC(C)C)[C@@H](C)O)C(=O)N[C@@H](CCC(N)=O)C(=O)O |  | Kd (Keap1/Nrf2 [1]): 0.0619 µM
2 | Cc1cccc2c1CCN(C(=O)[C@H]1CCCC[C@H]1C(=O)O)[C@@H]2CN1Cc2ccccc2C1=O |  | IC50 (Keap1/Nrf2 [2]): 0.75 µM
3 | CC(C)C[C@H](NC(=O)[C@@H](N)CC(=O)O)C(=O)NCC(=O)O (H-Asp-Leu-Gly-OH) | 1 | 
4 | C[C@@H](O)[C@H](NC(=O)[C@@H](N)CCC(=O)O)C(=O)NCC(=O)N[C@@H](CCC(=O)O)C(=O)O (H-ETGE-OH) | 0.005 | 
